Counter-ions that a name gives are not always drawn.
How the values were obtained:
L1210 leukemia [1] = test: antineoplastic activity against L1210 leukemia in mice, individual treatment (10^5 L1210 cells ip); assay type: in vivo; settings: for % ILS: 10^5 cells; for Dose/Injection range found safe and effective for providing %ILS of at least 25%, Schedule B: ip injections on days 1, 5 and 9 after implant; for Dose/Injection range found safe and effective for providing %ILS of at least 25%, Schedule C: ip injections on each of days 1-9 after implant; for Dose/Injection range found safe and effective for providing %ILS of at least 25%, Schedule A: single ip injection on day 1 after implant
Procedure: Schedule A consisted of a single injection administered ip on the first day following implant of the L1210 leukemia cells. (i.e., 24 hours after implant). Schedule B consisted of a three-injection regimen, with one injection being administered ip on each of the first, fifth and ninth days following implant. Schedule C consisted of a nine-injection regimen, with one injection being administered ip on each of the first through ninth days following implant.
In this set of tests, the mice received 10^5 L1210 leukemia cells by ip injection, and were divided into groups of 10, including a control group.

L1210 leukemia [2] = test: combination chemotherapy against L1210 leukemia in mice (10^6 L1210 cells ip, schedule A); assay type: in vivo; settings: Yoshi-864 and cyclophosphamide 75 mg/kg each; for 60-day Survivors: out of 10, sulfato complex 4 mg/kg
Sarcoma 180 = settings: Cleare et al 1973; cited from earlier work
L1210 leukemia [3] = test: combination chemotherapy against L1210 leukemia in mice (10^6 L1210 cells ip, schedule A); assay type: in vivo; settings: Yoshi-864 and cyclophosphamide 75 mg/kg each; for % ILS: dichloro complex 2.5 mg/kg; for 60-Day Survivors: out of 10, dichloro complex 2.5 mg/kg
Text: The significance of this test system in evaluating potential antineoplastic agents and the test protocol therefor, are described in detail by Geran et al, "Protocols for Screening Chemical Agents and Natural Products Against Animal Tumors and Other Biological Systems" (Third Edition), Cancer Chemotherapy Reports, Part 3, Volume 3, No. 2, Pages 1-103, September 1972. Briefly, the test procedure involves implanting L1210 leukemia cells into mice by intraperitoneal (i.p.) injection, beginning i.p. treatment with the test drug 24 hours after implant, and determining the antineoplastic activity of the test drug at optimum dose levels and schedules of administration as the percent increase in life span (%ILS) of the treated mice over the untreated control mice.
In this set of tests, the mice received by ip injection 10^6 L1210 leukemia cells, which produces a somewhat more advanced stage of the disease after 24 hours than is obtained upon using 10^5 cells as described in the previous set of tests. The mice were then divided into groups of ten, including a control group, and all mice within the same group were given the same treatment. Treatment was administered ip employing the A schedule of administration. […] The treatments tested were each of the three treating agents by themselves and the dichloro complex in combination with each of the other two treating agents. The resulting %ILS values and the number of mice (out of the group of 10) which survived sixty days following implant, are set forth in Table III.

L1210 leukemia [4] = test: antineoplastic activity of hydroxonitrato complex against L1210 leukemia in mice (10^6 L1210 cells ip); assay type: in vivo; settings: Schedule A
Procedure: The mice received by ip injection 10^6 L1210 leukemia cells, which produces a somewhat more advance stage of the disease after 24 hours than is obtained upon using 10^5 cells as described previously. The mice were then divided into groups of six, including a control group. […] The highest %ILS value obtained was 144 at a dose level of 10 mg/kg.

L1210 leukemia [5] = settings: Gale et al 1974; cited from earlier work
[6] = test system: ADJ/PC6A plasma cell tumor; settings: in comparison with cis-dichlorodiammineplatinum (II); Connors et al 1972; cited from earlier work
cancer = settings: in vivo; cited from earlier work
[7] = highest %ILS regardless of schedule or dose level
[8] = out of 10, malonato complex 15 mg/kg
[9] = hydroxymalonato complex 30 mg/kg
[10] = out of 10, dinitrato complex 3 mg/kg
[11] = out of 10, hydroxymalonato complex 30 mg/kg

Q: Which “% ILS” value (L1210 leukemia [1]; Schedule A, 2.5 mg/kg/injection ip) does the source give for NC1CCCCC1N.O=C([O-])CC(=O)[O-].[Pt+2] (centres unmarked) [Malonato complex, malonato (1,2-diaminocyclohexane) platinum (II)] here?
A: 258%

Q: What about the “% ILS” value (L1210 leukemia [1]; Schedule A, 40.0 mg/kg/injection ip) of the same compound?
A: 271%

Q: What about the “% ILS” value (L1210 leukemia [1]; Schedule B, 40.0 mg/kg/injection ip) of the same compound?
A: 157%

Q: What about the “% ILS” value (L1210 leukemia [1]; Schedule C, 10.0 mg/kg/injection ip) of the same compound?
A: 219%

Q: What about the “level of antineoplastic activity greater than that achieved with the dichloro complex” value (L1210 leukemia [1]; [7]) of the same compound?
A: 77%

Q: What about the “Dose/Injection range found safe and effective for providing %ILS of at least 25%, Schedule B” value (L1210 leukemia [1]) of the same compound?
A: 10 to 40 mg/kg

Q: What about the “Dose/Injection range found safe and effective for providing %ILS of at least 25%, Schedule C” value (L1210 leukemia [1]) of the same compound?
A: 5 to 20 mg/kg

Q: What about the “Dose/Injection range found safe and effective for providing %ILS of at least 25%, Schedule A” value (L1210 leukemia [1]) of the same compound?
A: 2.5 to 160 mg/kg

Q: And the “% ILS” value (L1210 leukemia [2]; malonato complex 15 mg/kg)?
A: 80%

Q: What about the “60-Day Survivors” value (L1210 leukemia [2]; [8]) of the same compound?
A: 0 mice

Q: And the “antitumor activity against Sarcoma 180 (in words)” value (Sarcoma 180)?
A: only marginal antitumor activity

Q: Which results are given for CS(=O)(=O)OCCCNCCCOS(C)(=O)=O [Yoshi-864, 1-propanol, 3,3'-iminodi-,dimethanesulfonate (ester) hydrochloride]?
A: % ILS (L1210 leukemia [2]; dinitrato complex 3 mg/kg): 116%; % ILS (L1210 leukemia [2]; [9]): 117%; % ILS (L1210 leukemia [2]; malonato complex 15 mg/kg): 112%; 60-Day Survivors (L1210 leukemia [2]; [10]): 0 mice; 60-Day Survivors (L1210 leukemia [2]; [11]): 0 mice; 60-Day Survivors (L1210 leukemia [2]; [8]): 0 mice; 60-day Survivors (L1210 leukemia [2]): 0 mice; % ILS (L1210 leukemia [2]; sulfato complex 4 mg/kg): 95%; % ILS (L1210 leukemia [3]): 81%; 60-Day Survivors (L1210 leukemia [3]): 0 mice

Q: Which “Dose/Injection range found safe and effective for providing %ILS of at least 25%, Schedule B” value (L1210 leukemia [1]) does the source give for NC1CCCCC1N.O=[N+]([O-])[O-].[OH-].[Pt+2] (centres unmarked) [Hydroxonitrato complex, hydroxonitrato (1,2-diaminocyclohexane) platinum (II)] here?
A: 1 to 5 mg/kg

Q: What about the “Dose/Injection range found safe and effective for providing %ILS of at least 25%, Schedule C” value (L1210 leukemia [1]) of the same compound?
A: 0.3 to 1.25 mg/kg

Q: What about the “Dose/Injection range found safe and effective for providing %ILS of at least 25%, Schedule A” value (L1210 leukemia [1]) of the same compound?
A: 2.5 to 15 mg/kg

Q: And the “% ILS” value (L1210 leukemia [4]; 10 mg/kg ip, 10^6 cells)?
A: 144%

Q: And the “greater %ILS value than dichloro complex” value (L1210 leukemia [4]; 10^6 cells vs dichloro complex at 10^5 cells)?
A: 26%

Q: For NC1CCCCC1N.[Cl][Pt][Cl] (centres unmarked) [Dichloro complex, dichloro (1,2-diaminocyclohexane) platinum (II)], which “combination with cyclophosphamide (in words)” value (L1210 leukemia [5]) is on record?
A: combined synergistically

Q: And the “effectiveness against L1210 leukemia (in words)” value (L1210 leukemia [5])?
A: highly effective

Q: What about the “increase in mean survival time in comparison with cis-dichlorodiammineplatinum (II)” value (L1210 leukemia [5]) of the same compound?
A: up to 54%

Q: What about the “% ILS” value (L1210 leukemia [1]; Schedule A, 6.25 mg/kg/injection ip) of the same compound?
A: 114%

Q: And the “% ILS” value (L1210 leukemia [1]; Schedule B, 8.0 mg/kg/injection ip)?
A: 113%

Q: And the “% ILS” value (L1210 leukemia [1]; Schedule C, 2.0 mg/kg/injection ip)?
A: 153%

Q: And the “antitumor activity against Sarcoma 180 (in words)” value (Sarcoma 180)?
A: only marginal antitumor activity

Q: And the “ID50 (in words)” value [6]?
A: quite similar to those of cis-dichlorodiammineplatinum (II)

Q: And the “LD50 (in words)” value [6]?
A: quite similar to those of cis-dichlorodiammineplatinum (II)

Q: And the “% ILS” value (L1210 leukemia [3])?
A: 73%

Q: What about the “60-Day Survivors” value (L1210 leukemia [3]) of the same compound?
A: 0 mice

Q: For N.N.[Cl][Pt][Cl] [cis-dichlorodiammineplatinum (II)], which “therapeutic index (in words)” value (cancer) is on record?
A: rather low therapeutic index

Q: What does the source list for NC1CCCCC1N.O=[N+]([O-])[O-].O=[N+]([O-])[O-].[Pt+2] (centres unmarked) [Dinitrato complex, dinitrato (1,2-diaminocyclohexane) platinum (II)]?
A: % ILS (L1210 leukemia [1]; Schedule A, 4.0 mg/kg/injection ip): 113%; % ILS (L1210 leukemia [1]; Schedule B, 4.0 mg/kg/injection ip): 247%; % ILS (L1210 leukemia [1]; Schedule C, 0.5 mg/kg/injection ip): 281%; level of antineoplastic activity greater than that achieved with the dichloro complex (L1210 leukemia [1]; [7]): 83%; Dose/Injection range found safe and effective for providing %ILS of at least 25%, Schedule B (L1210 leukemia [1]): 0.25 to 4 mg/kg; Dose/Injection range found safe and effective for providing %ILS of at least 25%, Schedule C (L1210 leukemia [1]): 0.05 to 2 mg/kg; Dose/Injection range found safe and effective for providing %ILS of at least 25%, Schedule A (L1210 leukemia [1]): 0.5 to 8 mg/kg; % ILS (L1210 leukemia [2]; dinitrato complex 3 mg/kg): 110%; 60-Day Survivors (L1210 leukemia [2]; [10]): 0 mice

Q: Which water solubility does the source give for “hydroxymalonato (1,2-diaminocyclohexane) platinum (II) [Hydroxymalonato complex]” here?
A: 1.5 mg/mL

Q: And the “% ILS” value (L1210 leukemia [1]; Schedule A, 75.0 mg/kg/injection ip)?
A: 97%

Q: What about the “% ILS” value (L1210 leukemia [1]; Schedule B, 37.5 mg/kg/injection ip) of the same compound?
A: 162%

Q: And the “level of antineoplastic activity greater than that achieved with the dichloro complex” value (L1210 leukemia [1]; [7])?
A: 111%

Q: And the “level of antineoplastic activity greater than that achieved with the malonato complex” value (L1210 leukemia [1]; [7])?
A: 19%

Q: What about the “potency against L1210 leukemia relative to malonato complex (in words)” value (L1210 leukemia [1]; in comparison with malonato complex) of the same compound?
A: even greater potency

Q: What about the “Dose/Injection range found safe and effective for providing %ILS of at least 25%, Schedule B” value (L1210 leukemia [1]) of the same compound?
A: 5 to 37.5 mg/kg

Q: And the “Dose/Injection range found safe and effective for providing %ILS of at least 25%, Schedule C” value (L1210 leukemia [1])?
A: 1 to 15 mg/kg

Q: What about the “Dose/Injection range found safe and effective for providing %ILS of at least 25%, Schedule A” value (L1210 leukemia [1]) of the same compound?
A: 2 to 150 mg/kg

Q: What about the “% ILS” value (L1210 leukemia [2]; [9]) of the same compound?
A: 118%

Q: And the “60-Day Survivors” value (L1210 leukemia [2]; [11])?
A: 0 mice

Q: With O=P1(N(CCCl)CCCl)NCCCO1 (centres unmarked) [Cyclophosphamide, cyclophosphamide] as the compound, how does the “% ILS” value (L1210 leukemia [2]; dichloro complex 2.5 mg/kg) read?
A: 79%

Q: What about the “% ILS” value (L1210 leukemia [2]; dinitrato complex 3 mg/kg) of the same compound?
A: 105%

Q: What about the “% ILS” value (L1210 leukemia [2]; [9]) of the same compound?
A: 107%

Q: And the “% ILS” value (L1210 leukemia [2]; malonato complex 15 mg/kg)?
A: 118%

Q: And the “60-Day Survivors” value (L1210 leukemia [2]; [10])?
A: 0 mice

Q: And the “60-Day Survivors” value (L1210 leukemia [2]; [11])?
A: 0 mice

Q: What about the “60-Day Survivors” value (L1210 leukemia [2]; [8]) of the same compound?
A: 0 mice

Q: What about the “60-day Survivors” value (L1210 leukemia [2]) of the same compound?
A: 0 mice

Q: What about the “% ILS” value (L1210 leukemia [2]; sulfato complex 4 mg/kg) of the same compound?
A: 97%

Q: What about the “60-Day Survivors” value (L1210 leukemia [3]) of the same compound?
A: 0 mice

Q: Which results are given for NC1CCCCC1N.O=S(=O)([O-])[O-].[Pt+2] (centres unmarked) [Sulfato complex, sulfato (1,2-diaminocyclohexane) platinum (II)]?
A: % ILS (L1210 leukemia [1]; Schedule A, 5.0 mg/kg/injection ip): 116%; % ILS (L1210 leukemia [1]; Schedule B, 3.33 mg/kg/injection ip): 285%; % ILS (L1210 leukemia [1]; Schedule C, 0.6 mg/kg/injection ip): 239%; level of antineoplastic activity greater than that achieved with the dichloro complex (L1210 leukemia [1]; [7]): 86%; Dose/Injection range found safe and effective for providing %ILS of at least 25%, Schedule B (L1210 leukemia [1]): 0.2 to 5 mg/kg; Dose/Injection range found safe and effective for providing %ILS of at least 25%, Schedule C (L1210 leukemia [1]): 0.1 to 1.2 mg/kg; Dose/Injection range found safe and effective for providing %ILS of at least 25%, Schedule A (L1210 leukemia [1]): 0.5 to 10 mg/kg; 60-day Survivors (L1210 leukemia [2]): 0 mice; % ILS (L1210 leukemia [2]; sulfato complex 4 mg/kg): 119%

Reference: US4175133A, “1,2-Diaminocyclohexane platinum (II) complexes having antineoplastic activity against L1210 leukemia” (priority 1977, dated 1979)
